Key:
L1210 [1] = test: Antiproliferative activity against mouse L1210 cells assessed as reduction in cell viability by MTT assay; assay type: functional, cell-based
HL-60 [2] = test: Cytotoxicity against human HL-60 cells assessed as reduction in cell viability incubated for 48 hrs by MTT assay; assay type: functional, cell-based; conditions: HL-60, 48 h
L1210 [3] = test: Cytotoxicity against mouse L1210 cells assessed as reduction in cell viability incubated for 48 hrs by MTT assay; assay type: functional, cell-based; conditions: L1210, 48 h
[4] = Cytotoxicity against Chinese hamster CHO cells assessed as reduction in cell viability incubated for 48 hrs by MTT assay; assay type: toxicity, cell-based, Cricetulus griseus
[5] = Cytotoxicity against Chinese hamster CHO cells assessed as reduction in cell viability by MTT assay; assay type: toxicity, cell-based, Cricetulus griseus
L1210 [6] = test: Cytotoxicity against mouse L1210 cells assessed as reduction in cell viability by MTT assay; assay type: functional, cell-based
HL-60 [7] = test: Cytotoxicity against human HL-60 cells assessed as reduction in cell viability by MTT assay; assay type: functional, cell-based
CT26 = test: Antitumor activity against mouse CT26 cells assessed as reduction in cell viability incubated for 4 hrs by MTT assay; assay type: functional, cell-based; conditions: CT26, 4 h
A549 = test: Antitumor activity against human A549 cells assessed as reduction in cell viability incubated for 4 hrs by MTT assay; assay type: functional, cell-based; conditions: A549, 4 h

Compound | IC50 (HL-60 [2]) [µM] | IC50 (L1210 [3]) [µM] | IC50 at 48 h [4] [µM] | IC50 [5] [µM] | IC50 (L1210 [6]) [µM] | IC50 (HL-60 [7]) [µM] | also measured
CCN1CCN(c2cc3c(cc2F)c(=O)c(-c2nnc4sc(-c5cn(C6CC6)c6cc(N7CCN(C)CC7)c(F)cc6c5=O)nn24)cn3C2CC2)CC1 |  |  |  |  |  |  | IC50 (L1210 [1]): 2.5 µM
CC1COc2c(N3CCN(C)CC3)c(F)cc3c(=O)c(-c4n[nH]c(=S)n4/N=C/c4ccccc4O)cn1c23 (centres undefined) | 10.5 | 10.5 | 10.5 |  |  |  | 
COc1cc(/C=N/n2c(-c3cn4c5c(c(N6CCN(C)CC6)c(F)cc5c3=O)OCC4C)nn(CN(C)C)c2=S)ccc1O (centres undefined) | 0.14 | 0.14 | 0.14 |  |  |  | 
COc1ccc(/C=N/NC(=O)c2cn(C3CC3)c3cc(N4CCNCC4)c(F)cc3c2=O)cc1O |  |  |  | 25 | 25 | 25 | 
CC1COc2c(N3CCN(C)CC3)c(F)cc3c(=O)c(-c4nn(CN(C)C)c(=S)n4/N=C/c4ccccc4O)cn1c23 (centres undefined) | 0.14 | 0.14 | 0.14 |  |  |  | 
COc1ccc(/C=N/n2c(-c3cn4c5c(c(N6CCN(C)CC6)c(F)cc5c3=O)OCC4C)n[nH]c2=S)cc1O (centres undefined) | 10.5 | 10.5 | 10.5 |  |  |  | 
COc1cc(/C=N/NC(=O)c2cn(C3CC3)c3cc(N4CCNCC4)c(F)cc3c2=O)cc(OC)c1OC |  |  |  | 25 | 25 | 25 | 
O=C(N/N=C/c1ccc([N+](=O)[O-])cc1)c1cn(C2CC2)c2cc(N3CCNCC3)c(F)cc2c1=O |  |  |  | 25 | 25 | 25 | 
COc1ccc(/C=N/n2c(-c3cn4c5c(c(N6CCN(C)CC6)c(F)cc5c3=O)OCC4C)nn(CN(C)C)c2=S)cc1O (centres undefined) | 0.14 | 0.14 | 0.14 |  |  |  | 
O=C(N/N=C/c1ccccc1O)c1cn(C2CC2)c2cc(N3CCNCC3)c(F)cc2c1=O |  |  |  | 25 | 25 | 25 | 
CCN1CCN(c2cc3c(cc2F)c(=O)c(-c2nnc4sc(-c5cn(C6CC6)c6cc(N7CCNCC7)c(F)cc6c5=O)nn24)cn3C2CC2)CC1 |  |  |  |  |  |  | IC50 (L1210 [1]): 0.2 µM
O=C(O)c1cn(C2CC2)c2cc(N3CCN(CP(=O)(c4ccccc4)c4ccccc4)CC3)c(F)cc2c1=O |  |  |  |  |  |  | IC50 (CT26): 150 µM; IC50 (A549): 150 µM
O=C(N/N=C/c1ccc(F)cc1)c1cn(C2CC2)c2cc(N3CCNCC3)c(F)cc2c1=O |  |  |  | 25 | 25 | 25 | 
COc1ccc(/C=N/NC(=O)c2cn(C3CC3)c3cc(N4CCNCC4)c(F)cc3c2=O)cc1 |  |  |  | 25 | 25 | 25 | 
COc1cc(/C=N/n2c(-c3cn4c5c(c(N6CCN(C)CC6)c(F)cc5c3=O)OCC4C)n[nH]c2=S)ccc1O (centres undefined) | 10.5 | 10.5 | 10.5 |  |  |  | 
CCN1CCN(c2cc3c(cc2F)c(=O)c(-c2nn4c(-c5cn(C6CC6)c6cc(N7CCN(CC)CC7)c(F)cc6c5=O)nnc4s2)cn3C2CC2)CC1 |  |  |  |  |  |  | IC50 (L1210 [1]): 1.2 µM
O=C(N/N=C/c1ccccc1)c1cn(C2CC2)c2cc(N3CCNCC3)c(F)cc2c1=O |  |  |  | 25 | 25 | 25 | 
CCN1CCN(c2cc3c(cc2F)c(=O)c(-c2nnc(S)n2N)cn3C2CC2)CC1 |  |  |  |  |  |  | IC50 (L1210 [1]): ≤ 50 µM
O=C(O)c1cn(C2CC2)c2cc(N3CCN(CP(=S)(c4ccccc4)c4ccccc4)CC3)c(F)cc2c1=O |  |  |  |  |  |  | IC50 (CT26): 150 µM; IC50 (A549): 150 µM
CCn1cc(C(=O)O)c(=O)c2cc(F)c(N3CCN(CP(=O)(c4ccccc4)c4ccccc4)CC3)cc21 |  |  |  |  |  |  | IC50 (CT26): 150 µM; IC50 (A549): 150 µM

Reference: ChEMBL document CHEMBL5233217, “Modification of 7-piperazinylquinolone antibacterials to promising anticancer lead compounds: Synthesis and in vitro studies” (Eur J Med Chem, 2020)
